Reference: patent US6355799B1, “Substituted benzene compounds, process for their preparation, and herbicidal and defoliant compositions containing them” (ISK Americas Incorporated, priority 1997, dated 2002)

What was measured:
Type in all cases: in vivo
[1] = tested on: barnyardgrass (Echinochloa crus-galli, ECHCG); assay: Pre-emerge test, greenhouse herbicide activity screening; conditions: pre-emerge, 14 days after application, rating scale 0-100
Summary of the method: (§1)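 Visual ratings on a 0-100 scale (0 no damage, 100 all plants dead) were taken at 14 days after treatment. Rates of 15-1000 g ai/ha in acetone, 187 l/ha, were sprayed onto soil one day after planting (pre-emerge) or onto 2-3 leaf plants with 0.25% v/v surfactant (post-emerge).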

[2] = tested on: green foxtail (Setaria viridis, SETVI); assay: as above; conditions: pre-emerge, 14 days after application, rating scale 0-100
Summary of the method: as §1

[3] = tested on: velvetleaf (Abutilon theophrasti, ABUTH); assay: as above; conditions: pre-emerge, 14 days after application, rating scale 0-100
Summary of the method: as §1

[4] = tested on: ivyleaf morningglory (Ipomoea hederacea, IPOHE); assay: as above; conditions: pre-emerge, 14 days after application, rating scale 0-100
Summary of the method: as §1

[5] = tested on: sicklepod (Cassia obtusifolia, CASOB); assay: as above; conditions: pre-emerge, 14 days after application, rating scale 0-100
Summary of the method: as §1

[6] = tested on: johnsongrass (Sorghum halepense, SORHA); assay: as above; conditions: pre-emerge, 14 days after application, rating scale 0-100
Summary of the method: as §1

[7] = tested on: lambsquarters (Chenopodium album, CHEAL); assay: as above; conditions: pre-emerge, 14 days after application, rating scale 0-100
Summary of the method: as §1

[8] = tested on: large crabgrass (Digitaria sanguinalis, DIGSA); assay: as above; conditions: pre-emerge, 14 days after application, rating scale 0-100
Summary of the method: as §1

[9] = tested on: field corn (Zea mays L., var. Dekalb 535, CORN); assay: Pre-emerge test, crop safety; conditions: pre-emerge, 14 days after application, rating scale 0-100
Summary of the method: (§2)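 Applied at 15–1000 g ai/ha from acetone in 187 l/ha spray volume. Post-emergence applications included 0.25% v/v non-ionic surfactant and reached plants sown 8–21 days before. Pre-emergence applications were incorporated by surface watering. Efficacy or crop damage was rated on a 0–100 scale after 14 days.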

[10] = tested on: upland rice (Oryza sp., var. Tebonnet, RICE); assay: Pre-emerge test, crop safety; conditions: pre-emerge, 14 days after application, rating scale 0-100
Summary of the method: as §2

[11] = tested on: redroot pigweed (Amaranthus retroflexus, AMARE); assay: Pre-emerge test, greenhouse herbicide activity screening; conditions: pre-emerge, 14 days after application, rating scale 0-100
Summary of the method: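 Rating: 0–100 visual injury, 14 DAA. Application: acetone, 187 l/ha, 15–1000 g ai/ha, flat-fan track sprayer with nozzle 40–45 cm above soil or canopy. Post-emerge runs used 0.25% v/v surfactant on 2–3 leaf plants.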

[12] = tested on: barnyardgrass (Echinochloa crus-galli, ECHCG); assay: Post-emerge test, greenhouse herbicide activity screening; conditions: post-emerge, 14 days after application, rating scale 0-100
Summary of the method: (§3)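 Sandy loam pots; pre-emerge: sown 1 d pre-spray, surface-watered after, then bottom-watered. Post-emerge: sown 8–21 d before, 2–3 leaf stage, + 0.25% v/v NIS, bottom-watered. Acetone, 187 l/ha track spray, 15–1000 g ai/ha. 0–100 injury score, day 14.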

[13] = tested on: green foxtail (Setaria viridis, SETVI); assay: as above; conditions: post-emerge, 14 days after application, rating scale 0-100
Summary of the method: as §3

[14] = tested on: velvetleaf (Abutilon theophrasti, ABUTH); assay: as above; conditions: post-emerge, 14 days after application, rating scale 0-100
Summary of the method: as §3

[15] = tested on: ivyleaf morningglory (Ipomoea hederacea, IPOHE); assay: as above; conditions: post-emerge, 14 days after application, rating scale 0-100
Summary of the method: as §3

[16] = tested on: sicklepod (Cassia obtusifolia, CASOB); assay: as above; conditions: post-emerge, 14 days after application, rating scale 0-100
Summary of the method: as §3

[17] = tested on: redroot pigweed (Amaranthus retroflexus, AMARE); assay: as above; conditions: post-emerge, 14 days after application
Summary of the method: as §3

[18] = tested on: johnsongrass (Sorghum halepense, SORHA); assay: as above; conditions: post-emerge, 14 days after application, rating scale 0-100
Summary of the method: as §3

[19] = tested on: large crabgrass (Digitaria sanguinalis, DIGSA); assay: as above; conditions: post-emerge, 14 days after application, rating scale 0-100
Summary of the method: as §3

[20] = tested on: field corn (Zea mays L., var. Dekalb 535, CORN); assay: Post-emerge test, crop safety; conditions: post-emerge, 14 days after application, rating scale 0-100
Summary of the method: as §1

[21] = tested on: upland rice (Oryza sp., var. Tebonnet, RICE); assay: Post-emerge test, crop safety; conditions: post-emerge, 14 days after application, rating scale 0-100
Summary of the method: as §1

[22] = 63 g ai/ha, rating scale 0-100 (0 no damage, 100 complete death)
[23] = 250 g ai/ha, rating scale 0-100

## COc1c(Cl)cc(F)c(-n2c(=O)cc(C(F)(F)F)n(C)c2=O)c1NN=CC(C)c1ccccc1 (stereo not drawn) [15-17]
[1]; 63 g ai/ha
  phytotoxicity rating ECHCG: 100
[1]; 250 g ai/ha
  phytotoxicity rating ECHCG: 100
[2]; 63 g ai/ha
  phytotoxicity rating SETVI: 100
[2]; 250 g ai/ha
  phytotoxicity rating SETVI: 100
[3]; 63 g ai/ha
  phytotoxicity rating ABUTH: 100
[3]; 250 g ai/ha
  phytotoxicity rating ABUTH: 100
[4]; 63 g ai/ha
  phytotoxicity rating IPOHE: 100
[4]; 250 g ai/ha
  phytotoxicity rating IPOHE: 100
[5]; 63 g ai/ha
  phytotoxicity rating CASOB: 100
[5]; 250 g ai/ha
  phytotoxicity rating CASOB: 100
[6]; 63 g ai/ha
  phytotoxicity rating SORHA: 100
[6]; 250 g ai/ha
  phytotoxicity rating SORHA: 100
[7]; 63 g ai/ha
  phytotoxicity rating CHEAL: 100
[7]; 250 g ai/ha
  phytotoxicity rating CHEAL: 100
[8]; 63 g ai/ha
  phytotoxicity rating DIGSA: 100
[8]; 250 g ai/ha
  phytotoxicity rating DIGSA: 100
[9]; 63 g ai/ha
  phytotoxicity rating CORN: 80
[9]; 250 g ai/ha
  phytotoxicity rating CORN: 95
[10]; 63 g ai/ha
  phytotoxicity rating RICE: 100
[10]; 250 g ai/ha
  phytotoxicity rating RICE: 100
[11]; 63 g ai/ha
  phytotoxicity rating AMARE: 100
[11]; 250 g ai/ha
  phytotoxicity rating AMARE: 100
[12]; 63 g ai/ha
  Post-emerge Herbicidal Activity ECHCG (phytotoxicity rating): 50
[12]; 250 g ai/ha
  Post-emerge Herbicidal Activity ECHCG (phytotoxicity rating): 99
[13]; 63 g ai/ha
  Post-emerge Herbicidal Activity SETVI (phytotoxicity rating): 40
[13]; 250 g ai/ha
  Post-emerge Herbicidal Activity SETVI (phytotoxicity rating): 90
[14]; 63 g ai/ha
  Post-emerge Herbicidal Activity ABUTH (phytotoxicity rating): 100
[14]; 250 g ai/ha
  Post-emerge Herbicidal Activity ABUTH (phytotoxicity rating): 100
[15]; 63 g ai/ha
  Post-emerge Herbicidal Activity IPOHE (phytotoxicity rating): 100
[15]; 250 g ai/ha
  Post-emerge Herbicidal Activity IPOHE (phytotoxicity rating): 100
[16]; 63 g ai/ha
  Post-emerge Herbicidal Activity CASOB (phytotoxicity rating): 80
[16]; 250 g ai/ha
  Post-emerge Herbicidal Activity CASOB (phytotoxicity rating): 100
[17]; [22]
  Post-emerge Herbicidal Activity AMARE (phytotoxicity rating): 90
[17]; [23]
  Post-emerge Herbicidal Activity AMARE (phytotoxicity rating): 100
[18]; 63 g ai/ha
  Post-emerge Herbicidal Activity SORHA (phytotoxicity rating): 20
[18]; 250 g ai/ha
  Post-emerge Herbicidal Activity SORHA (phytotoxicity rating): 95
[19]; 63 g ai/ha
  Post-emerge Herbicidal Activity DIGSA (phytotoxicity rating): 40
[19]; 250 g ai/ha
  Post-emerge Herbicidal Activity DIGSA (phytotoxicity rating): 99
[20]; 63 g ai/ha
  Post-emerge Herbicidal Activity CORN (crop damage rating): 35
[20]; 250 g ai/ha
  Post-emerge Herbicidal Activity CORN (crop damage rating): 80
[21]; 63 g ai/ha
  Post-emerge Herbicidal Activity RICE (crop damage rating): 75
[21]; 250 g ai/ha
  Post-emerge Herbicidal Activity RICE (crop damage rating): 90

## COc1c(Cl)cc(F)c(-n2c(=O)cc(C(F)(F)F)n(C)c2=O)c1NNC(=O)C1CC1 [Compound 15-2, 3-[4-chloro-2-(2-cycopropanecarbonyldiazanyl)-6-fluoro-3-methoxyphenyl]-1-methyl-6-trifluoromethyl-2,4(1H, 3H)-pyrimidinedione]
[1]; 63 g ai/ha
  phytotoxicity rating ECHCG: 100
[1]; 250 g ai/ha
  phytotoxicity rating ECHCG: 100
[2]; 63 g ai/ha
  phytotoxicity rating SETVI: 100
[2]; 250 g ai/ha
  phytotoxicity rating SETVI: 100
[3]; 63 g ai/ha
  phytotoxicity rating ABUTH: 100
[3]; 250 g ai/ha
  phytotoxicity rating ABUTH: 100
[4]; 63 g ai/ha
  phytotoxicity rating IPOHE: 10
[4]; 250 g ai/ha
  phytotoxicity rating IPOHE: 100
[5]; 63 g ai/ha
  phytotoxicity rating CASOB: 100
[5]; 250 g ai/ha
  phytotoxicity rating CASOB: 100
[6]; 63 g ai/ha
  phytotoxicity rating SORHA: 100
[6]; 250 g ai/ha
  phytotoxicity rating SORHA: 100
[7]; 63 g ai/ha
  phytotoxicity rating CHEAL: 100
[7]; 250 g ai/ha
  phytotoxicity rating CHEAL: 100
[8]; 63 g ai/ha
  phytotoxicity rating DIGSA: 100
[8]; 250 g ai/ha
  phytotoxicity rating DIGSA: 100
[9]; 63 g ai/ha
  phytotoxicity rating CORN: 80
[9]; 250 g ai/ha
  phytotoxicity rating CORN: 100
[10]; 63 g ai/ha
  phytotoxicity rating RICE: 99
[10]; 250 g ai/ha
  phytotoxicity rating RICE: 100
[11]; 63 g ai/ha
  phytotoxicity rating AMARE: 100
[11]; 250 g ai/ha
  phytotoxicity rating AMARE: 100
[12]; 63 g ai/ha
  Post-emerge Herbicidal Activity ECHCG (phytotoxicity rating): 0
[12]; 250 g ai/ha
  Post-emerge Herbicidal Activity ECHCG (phytotoxicity rating): 90
[13]; 63 g ai/ha
  Post-emerge Herbicidal Activity SETVI (phytotoxicity rating): 0
[13]; 250 g ai/ha
  Post-emerge Herbicidal Activity SETVI (phytotoxicity rating): 80
[14]; 63 g ai/ha
  Post-emerge Herbicidal Activity ABUTH (phytotoxicity rating): 80
[14]; 250 g ai/ha
  Post-emerge Herbicidal Activity ABUTH (phytotoxicity rating): 100
[15]; 63 g ai/ha
  Post-emerge Herbicidal Activity IPOHE (phytotoxicity rating): 90
[15]; 250 g ai/ha
  Post-emerge Herbicidal Activity IPOHE (phytotoxicity rating): 100
[16]; 63 g ai/ha
  Post-emerge Herbicidal Activity CASOB (phytotoxicity rating): 10
[16]; 250 g ai/ha
  Post-emerge Herbicidal Activity CASOB (phytotoxicity rating): 75
[17]; [22]
  Post-emerge Herbicidal Activity AMARE (phytotoxicity rating): 20
[17]; [23]
  Post-emerge Herbicidal Activity AMARE (phytotoxicity rating): 95
[18]; 63 g ai/ha
  Post-emerge Herbicidal Activity SORHA (phytotoxicity rating): 0
[18]; 250 g ai/ha
  Post-emerge Herbicidal Activity SORHA (phytotoxicity rating): 70
[19]; 63 g ai/ha
  Post-emerge Herbicidal Activity DIGSA (phytotoxicity rating): 0
[19]; 250 g ai/ha
  Post-emerge Herbicidal Activity DIGSA (phytotoxicity rating): 80
[20]; 63 g ai/ha
  Post-emerge Herbicidal Activity CORN (crop damage rating): 15
[20]; 250 g ai/ha
  Post-emerge Herbicidal Activity CORN (crop damage rating): 80
[21]; 63 g ai/ha
  Post-emerge Herbicidal Activity RICE (crop damage rating): 50
[21]; 250 g ai/ha
  Post-emerge Herbicidal Activity RICE (crop damage rating): 75
